How the values were obtained:
MR1 on human cell lines = molecular target: T1, MR1 on human cell lines (Homo sapiens, UniProt Q95460); test: MR1 surface expression on human cell lines after ligand incubation; format: cell-based; conditions: range of human cell lines, after incubation (not shown)
T1 construct: endogenous in cells
Excerpt: (§1) MR1 mRNA transcripts are present in different tissues and cell lines from mice and humans. […] In contrast, whether mouse tumor cell lines express MR1 has not previously been examined. […] Basally, the level of MR1 was almost undetectable on the surface of all tumor cell lines examined (FIG. 2D). […] The kinetics of MR1 upregulation on B16F10 cells was similar to what was previously reported for human C1R cells (B-cell lymphoblastoid cell line) (McWilliam et al., 2016). […] Next, the impact of up-regulation of MR1 on B16F10 or LWT1 prior to i.v injection to WT or MR1−/− mice on the number of lung metastases was assessed.

[1] = molecular target: T2, surface MR1 on mouse tumor cell lines (Mus musculus, UniProt Q8HWB0); test: MR1 surface expression on mouse tumor cell lines by flow cytometry; format: cell-based; conditions: for MR1 cell surface expression: 100 nM, 4 hours
T2 construct: endogenous in cells
Description: FIG. 2. Up-regulation of MR1 on B16F10 cells increases lung metastases that is dependent on MAIT cells. (A) The schematic and timeline of expanding MAIT cells from splenocytes derived from C57BL/6 WT mice with IL-2 and 5-OP-RU, for sorting and adoptive transfer into tumor-bearing mice. (B, C) Groups of WT or MR1^−/− or Rag2cγ^−/− mice (n=5-6/group) were injected i.v. with (B) 1×10^5 or (C) 1×10^4 B16F10 melanoma cells. In some groups, sorted MAIT or T conventional cells (cT) (non-MAIT αβ^+ T cells) (2×10^5 cells/mouse) from C57BL/6 (B) WT or (C) TCRδ^−/− mice were i.v. injected into the indicated groups of mice one day before tumor inoculation. (C) One group of mice received i.v injection of media alone as a control. (B, C) On day 14 relative to tumor cell inoculation, lungs were harvested and the metastatic burden was quantified by counting colonies on the lung surface. Data presented as mean±SEM. (D) B16F10 or LWT1 melanoma cells were stimulated in vitro with DMSO or 5-OP-RU (100 nM) for 4 hours before cell surface MR1 expression was determined by flow cytometry. Groups of C57BL/6 WT or MR1^−/− mice (n=5-6/group) were i.v. injected with (E) 1×10^5 B16F10 or (F) 5×10^5 LWT1 cells melanoma cells pulsed with DMSO or 5-OP-RU (100 nM, 4 hours). Fourteen days later relative to tumor cell inoculation, lungs were harvested and the metastatic burden was quantified by counting colonies on the lung surface. Data presented as mean±SEM. Experiments performed once for (B, C, F) and three times for (D, E) with one representative experiment shown. Significant differences between groups as indicated by crossbars were determined using a one-way ANOVA followed by Tukey's post-hoc test (B, E, F), *p<0.05, **p<0.01, ****p<0.0001
Naïve or tumor-bearing lung single-cell suspensions were generated as previously described (Blake et al., 2016) and incubated with anti-CD16/32 (2.4G2) to block Fc receptors on ice prior to surface staining with the antibodies. The following antibodies were used for FACs analysis: anti-CD45.2 (104), anti-TCRβ (H57-597), anti-NK1.1 (PK136), anti-NKp46 (29A1.4), anti-CD45R (B220, RA3-6B2), anti-F4/80 (BM8), anti-CD69 (H1.2F3) (all from BioLegend, eBioscience), and MR1 tetramers. For intracellular cytokine staining, cells were surface stained as described above and then fixed and permeabilized with a cytofix/cytoperm kit (BD Biosciences) followed by staining with anti-IFNγ (XMG1.2), anti-TNF (MP6-XT22), anti-IL-17A (TC11-18H10.1) or isotype (eBio299Arm) antibody (all from BioLegend). All data were collected on a Fortessa 4 flow cytometer (BD Biosciences) and analyzed with FlowJo v10 software (TreeStar, Inc.).
as §1

T2 sequence (Q8HWB0 19-341): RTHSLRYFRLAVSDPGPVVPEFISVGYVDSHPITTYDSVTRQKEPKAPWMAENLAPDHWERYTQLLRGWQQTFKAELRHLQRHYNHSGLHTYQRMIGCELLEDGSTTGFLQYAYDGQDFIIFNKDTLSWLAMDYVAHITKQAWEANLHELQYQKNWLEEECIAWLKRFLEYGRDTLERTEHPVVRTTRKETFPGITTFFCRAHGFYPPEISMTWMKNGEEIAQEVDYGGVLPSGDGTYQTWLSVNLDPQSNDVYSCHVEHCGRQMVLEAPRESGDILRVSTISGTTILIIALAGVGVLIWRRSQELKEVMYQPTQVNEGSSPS
T2 sequence (P01887 21-119 partner): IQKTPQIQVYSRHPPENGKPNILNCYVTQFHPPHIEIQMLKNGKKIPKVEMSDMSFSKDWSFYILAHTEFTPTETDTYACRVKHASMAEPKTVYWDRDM
T1 sequence (Q95460 23-341): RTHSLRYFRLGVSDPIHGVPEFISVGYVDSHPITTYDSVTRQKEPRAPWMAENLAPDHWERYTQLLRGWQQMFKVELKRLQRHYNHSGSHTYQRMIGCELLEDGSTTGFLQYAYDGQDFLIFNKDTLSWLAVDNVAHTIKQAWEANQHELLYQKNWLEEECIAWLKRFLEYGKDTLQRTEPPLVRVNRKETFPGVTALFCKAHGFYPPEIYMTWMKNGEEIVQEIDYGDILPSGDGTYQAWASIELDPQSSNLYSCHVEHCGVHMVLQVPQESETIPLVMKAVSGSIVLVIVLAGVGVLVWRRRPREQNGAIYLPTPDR

## CC(=O)C=Nc1c(NC[C@H](O)[C@H](O)[C@H](O)CO)[nH]c(=O)[nH]c1=O [5-OP-RU]
MR1 on human cell lines
  MR1 expression: became upregulated
[1]; B16F10, dose titration
  lowest ligand concentration that upregulated MR1: 10 nM
[1]; B16F10 melanoma cells
  MR1 cell surface expression: substantially upregulated
[1]; LWT1 melanoma cells
  MR1 cell surface expression: substantially upregulated
[1]; MC38 parental or OVA, HcMel3, HcMel12, SM1WT1, MCA1956 cells
  MR1 cell surface expression: upregulated to a varying extent
[1]; RM-1, 4T1.2 or 3LL carcinoma cells
  MR1 cell surface expression: not upregulated
